Values quoted from earlier work in patent US20170224936A1, “Nasal treatment delivery device with carbon dioxide and saline, and methods” (priority 2016, published 2017).

Columns and labels:
[1] = carbon dioxide gas treatments per Capnia prior art to Rasor et al

sensation during exposure (during exposure to CO(2)): transient burning sensation | severe stinging [1]: had occurred
Structure (SMILES): O=C=O [CO(2), carbon dioxide]
sneezes (20-second exposure, compared with no treatment, p=0.05): significant reduction | histamine levels in ipsilateral nasal secretions (after pretreatment with CO(2)): did not increase | ipsilateral secretion weights (compared with no treatment): numerically reduced | bilateral runny nose symptoms (compared with no treatment, p=0.01): significant reduction | contralateral secretion weights (compared with no treatment, p=0.04): significant reduction
